Test results: PubChem BioAssay AID1845206 (Molecular Pharmacology Branch, DTP, NCI, 2023)
Where “and” joins values, the source holds several entries; their conditions need not be identical. Identical values can stand only once. Calls of active or inactive are those of the source. The calls were made as follows: active = viability on the fitted dose curve at most 10% of control; inactive = the rest.

Tested on: NCI-H1618 multicellular tumor spheroid viability
Assay: Anticancer human tumor NCI-H1618 cell line growth inhibition;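 also: spheroids exposed to agents for 7 days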
Details: for IC50: curve of first compound; for viability, T/C: stronger effect = lower value
Method in brief: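 Complex spheroids of malignant cells with endothelial cells and mesenchymal stem cells; agents alone or combined, from near clinical Cmax (or 10 microM if unknown) down in half-log steps, 0.25% DMSO final.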

[1] = second compound 1 µM, first compound 0.0316 µM
[2] = second compound 1 µM, first compound 0.1 µM
[3] = second compound 1 µM, first compound 0.316 µM
[4] = second compound 1 µM, first compound 1 µM
[5] = second compound 1 µM, first compound 3.16 µM
[6] = second compound 1 µM, first compound 10 µM
[7] = second compound 3.16 µM, first compound 0.0316 µM
[8] = second compound 3.16 µM, first compound 0.1 µM
[9] = second compound 3.16 µM, first compound 0.316 µM
[10] = second compound 3.16 µM, first compound 1 µM
[11] = second compound 3.16 µM, first compound 3.16 µM
[12] = second compound 3.16 µM, first compound 10 µM
[13] = second compound 10 µM, first compound 0.0316 µM
[14] = second compound 10 µM, first compound 0.1 µM
[15] = second compound 10 µM, first compound 0.316 µM
[16] = second compound 10 µM, first compound 1 µM
[17] = second compound 10 µM, first compound 3.16 µM
[18] = second compound 10 µM, first compound 10 µM
[19] = second compound 31.6 µM, first compound 0.0316 µM
[20] = second compound 31.6 µM, first compound 0.1 µM
[21] = second compound 31.6 µM, first compound 0.316 µM
[22] = second compound 31.6 µM, first compound 1 µM
[23] = second compound 31.6 µM, first compound 3.16 µM
[24] = second compound 31.6 µM, first compound 10 µM
[25] = second compound 100 µM, first compound 0.0316 µM
[26] = second compound 100 µM, first compound 0.1 µM
[27] = second compound 100 µM, first compound 0.316 µM
[28] = second compound 100 µM, first compound 1 µM
[29] = second compound 100 µM, first compound 3.16 µM
[30] = second compound 100 µM, first compound 10 µM

`CC(C)n1c(=O)n(C)c2cnc3cc(F)c(-c4ccc(OCCCN5CCCCC5)nc4)cc3c21` + Cn1nnc2c(C(N)=O)ncn2c1=O was tested, and the IC50 (second compound 1 µM) was > 10000 nM, the IC50 (second compound 3.16 µM) was < 31.6 nM and the IC50 (second compound 10 µM) was < 31.6 nM. The IC50 (second compound 31.6 µM) was < 31.6 nM, the IC50 (second compound 100 µM) was 4440 nM and the viability, T/C [1] was 82.9%. The outcome [2] was “inactive”, the outcome [3] was “inactive” and the viability, T/C [4] was 86.7%. For the same molecule, the viability, T/C [5] was 78.4%, the viability, T/C [6] was 69% and the viability, T/C [7] was 20.5%. For the same molecule, the viability, T/C [8] was 16.2%, the viability, T/C [9] was 25.4% and the viability, T/C [10] was 22.2%. The viability, T/C [11] was 8.21%, the viability, T/C [12] was 14.4% and the viability, T/C [13] was 12.6%. The viability, T/C [14] was 2.97%, the viability, T/C [15] was 8.79% and the viability, T/C [16] was 11.4%. The viability, T/C [17] was 19.9%, the viability, T/C [18] was 5.34% and the viability, T/C [19] was 9.31%. It also gave a viability, T/C [20] of 17.1%, a viability, T/C [21] of 12.9% and a viability, T/C [22] of 11.6%. It also gave a viability, T/C [23] of 23%, a viability, T/C [24] of 6.81% and a viability, T/C [25] of 57.3%. It also gave a viability, T/C [26] of 68.8%, a viability, T/C [27] of 52% and a viability, T/C [28] of 67.2%. For the same molecule, the viability, T/C [29] was 57.6% and the viability, T/C [30] was 29.9%.
With `COc1ccc([C@@H](O)c2cc(-c3ncnc4cc(N5CCOCC5)ccc34)c(F)cc2Cl)nn1` + Cn1nnc2c(C(N)=O)ncn2c1=O the IC50 (second compound 1 µM) was 5420 nM, the IC50 (second compound 3.16 µM) was < 31.6 nM and the IC50 (second compound 10 µM) was < 31.6 nM. The IC50 (second compound 31.6 µM) was < 31.6 nM, the IC50 (second compound 100 µM) was < 31.6 nM and the viability, T/C [1] was 86.8%. For the same molecule, the viability, T/C [2] was 92%, the viability, T/C [3] was 95.2% and the outcome [4] was “inactive”. The viability, T/C [5] was 72.6%, the viability, T/C [6] was 24.2% and the viability, T/C [7] was 26.6%. The viability, T/C [8] was 27.2%, the viability, T/C [9] was 17.2% and the viability, T/C [10] was 22.2%. The viability, T/C [11] was 5.58%, the viability, T/C [12] was 6.14% and the viability, T/C [13] was 3.36%. For the same molecule, the viability, T/C [14] was 5.1%, the viability, T/C [15] was 5.03% and the viability, T/C [16] was 5.47%. The viability, T/C [17] was 5.06%, the viability, T/C [18] was 5.28% and the viability, T/C [19] was 8.19%. For the same molecule, the viability, T/C [20] was 12.4%, the viability, T/C [21] was 14.6% and the viability, T/C [22] was 17.1%. It also gave a viability, T/C [23] of 5.03%, a viability, T/C [24] of 5.45% and a viability, T/C [25] of 20.6%. It also gave a viability, T/C [26] of 34.8%, a viability, T/C [27] of 63.5% and a viability, T/C [28] of 35.5%. It also gave a viability, T/C [29] of 20.1% and a viability, T/C [30] of 12.2%.
In the case of `Cn1ncnc1[C@H]1c2n[nH]c(=O)c3cc(F)cc(c23)N[C@@H]1c1ccc(F)cc1`, the viability, T/C (compound 0.00949 µM) is reported as 92.2% and 26.7% and 101%, the viability, T/C (compound 0.03 µM) is reported as 91.8% and 23.5% and 84.8% and the viability, T/C (compound 0.0949 µM) is reported as 88.2% and 22.8% and 79.8%. For the same molecule, the viability, T/C (compound 0.3 µM) was 13.2% and 5.31% and 10.7%, the viability, T/C (compound 0.949 µM) was 1.9% and 23.1% and 3.83% and the viability, T/C (compound 3 µM) was 1.81% and 2.3% and 3.2%.
`COc1cc(C)[nH]c(=O)c1CN1CCc2c(Cl)cc(C(OC)C3COC3)c(Cl)c2C1=O` (stereo unspecified) + COc1cc2c(cc1O)CCNC21CSC2c3c(OC(C)=O)c(C)c4c(c3C(COC1=O)N1C(O)C3Cc5cc(C)c(OC)c(O)c5C(C21)N3C)OCO4 was tested, and the IC50 (second compound 30 pM) was > 10000 nM, the IC50 (second compound 94.9 pM) was 527 nM and the IC50 (second compound 0.0003 µM) was < 31.6 nM. For the same molecule, the IC50 (second compound 0.000949 µM) was < 31.6 nM, the IC50 (second compound 0.003 µM) was < 31.6 nM and the viability, T/C (second compound 30 pM, first compound 0.0316 µM) was 73.8%. It also gave a viability, T/C (second compound 30 pM, first compound 0.1 µM) of 74.9%, a viability, T/C (second compound 30 pM, first compound 0.316 µM) of 61.7% and a viability, T/C (second compound 30 pM, first compound 1 µM) of 73.8%. The viability, T/C (second compound 30 pM, first compound 3.16 µM) was 74.4%, the viability, T/C (second compound 30 pM, first compound 10 µM) was 67.9% and the viability, T/C (second compound 94.9 pM, first compound 0.0316 µM) was 86.8%. It also gave a viability, T/C (second compound 94.9 pM, first compound 0.1 µM) of 65.9%, a viability, T/C (second compound 94.9 pM, first compound 0.316 µM) of 48.3% and a viability, T/C (second compound 94.9 pM, first compound 1 µM) of 57.5%. For the same molecule, the viability, T/C (second compound 94.9 pM, first compound 3.16 µM) was 31.9%, the viability, T/C (second compound 94.9 pM, first compound 10 µM) was 38.4% and the viability, T/C (second compound 0.0003 µM, first compound 0.0316 µM) was 14.9%. It also gave a viability, T/C (second compound 0.0003 µM, first compound 0.1 µM) of 19.3%, a viability, T/C (second compound 0.0003 µM, first compound 0.316 µM) of 5.64% and a viability, T/C (second compound 0.0003 µM, first compound 1 µM) of 2.68%. It also gave a viability, T/C (second compound 0.0003 µM, first compound 3.16 µM) of 1.81%, a viability, T/C (second compound 0.0003 µM, first compound 10 µM) of 3.33% and a viability, T/C (second compound 0.000949 µM, first compound 0.0316 µM) of 5.55%. It also gave a viability, T/C (second compound 0.000949 µM, first compound 0.1 µM) of 2.33%, a viability, T/C (second compound 0.000949 µM, first compound 0.316 µM) of 3.62% and a viability, T/C (second compound 0.000949 µM, first compound 1 µM) of 3.05%. The viability, T/C (second compound 0.000949 µM, first compound 3.16 µM) was 3.08%, the viability, T/C (second compound 0.000949 µM, first compound 10 µM) was 3.38% and the viability, T/C (second compound 0.003 µM, first compound 0.0316 µM) was 3.07%. For the same molecule, the viability, T/C (second compound 0.003 µM, first compound 0.1 µM) was 2.73%, the viability, T/C (second compound 0.003 µM, first compound 0.316 µM) was 3.33% and the viability, T/C (second compound 0.003 µM, first compound 1 µM) was 2.29%. The viability, T/C (second compound 0.003 µM, first compound 3.16 µM) was 1.94% and the viability, T/C (second compound 0.003 µM, first compound 10 µM) was 2.51%.
